{"source": "patent US20130059787A1", "about": "“METHODS OF USING HUMAN PROTEIN KINASE C DELTA VIII AS A BIOMARKER” (UNITED STATES DEPARTMENT OF VETERAN AFFAIRS, priority 2010, published 2013)", "key": {"ischemic stroke": {"system": "ischemic stroke", "conditions": "RA injections immediately and following ischemia; cited from earlier work"}, "[1]": {"system": "5′ splice site II of PKCδ exon 10", "assay": "pSPL3_PKCδ splicing minigene in NT2 cells, RT-PCR", "format": "cell-based, human", "conditions": "RA about 10 μM, 24 h", "experimental": "(a) schematic represents PKCδ pre-mRNA exon 10 and flanking introns cloned into pSPL3 splicing vector between the SD and SA exons. The resulting minigene is referred to as pSPL3_PKCδ minigene. Arrows indicate position of primers used in RT-PCR analysis. (b) pSPL3_PKCδ minigene and pSPL3 empty vector were transfected overnight, and then the cells were treated with or without about 10 μM RA for about 24 h. Total RNA was extracted and RT-PCR performed using primers as described above. Expected products are SD-SA: constitutive splicing; SSI: usage of 5′ splice site I; SSII: usage of 5′ splice site II. (c) About 2 μg of SC35 or SF2/ASF was co-transfected along with the pSPL3_PKCδ splicing minigene. […] Graphs represent percent exon inclusion calculated as SS II/(SS II+SSI)×100 in the samples and are representative of four experiments performed separately. […]\nSplicing minigenes are advantageous to identify cis-elements on the pre-mRNA involved in regulated alternative splicing. […] Since the human PKCδ splice variants used alternative 5′ splice sites as determined previously, exon 10 of PKCδ pre-mRNA along with its flanking 3′ and 5′ intronic sequences was cloned (as described under “Experimental Procedures”) in the multiple cloning site (MCS) between the splice donor (SD) and splice acceptor (SA) exons of pSPL3, a vector developed to study splicing events (schematic shown in FIG. 10a). […]"}, "APP/PS1 transgenic mice": {"system": "APP/PS1 transgenic mice", "conditions": "RA treatment; cited from earlier work"}, "PKCδ promoter": {"system": "PKCδ promoter", "assay": "pGlow-PKCδ promoter reporter transfected into NT2 cells", "format": "cell-based, human", "conditions": "RA treatment", "excerpt": "Computational analysis of PKCδ promoter indicated putative RAREs. pGlow-PKCδ promoter (gift from Dr. Stuart H. Yuspa, NCI) was transfected into NT2 cells to determine if RA regulates transcription of the PKCδ gene via RARE on the PKCδ promoter region. […] This was verified by western blot analysis using GFP antibody to confirm up-regulation of PKCδ promoter by ATRA treatment."}}}
{"compound": "CC1=C(/C=C/C(C)=C/C=C/C(C)=C/C(=O)O)C(C)(C)CCC1", "note": "[RA, all-trans-retinoic acid]", "values": [{"measurement": "infarct volume", "setting": "ischemic stroke", "result": "reduced"}, {"measurement": "utilization of 5′ splice site II of PKCδ exon 10 in pSPL3_PKCδ minigene", "setting": "[1]", "result": "increased utilization"}, {"measurement": "APP phosphorylation and processing", "setting": "APP/PS1 transgenic mice", "result": "decreased"}, {"measurement": "Aβ deposition", "setting": "APP/PS1 transgenic mice", "result": "decreased"}, {"measurement": "activation of microglia and astrocytes", "setting": "APP/PS1 transgenic mice", "result": "decreased"}, {"measurement": "neuronal degeneration", "setting": "APP/PS1 transgenic mice", "result": "attenuated"}, {"measurement": "spatial learning and memory", "setting": "APP/PS1 transgenic mice", "result": "improved"}, {"measurement": "tau phosphorylation", "setting": "APP/PS1 transgenic mice", "result": "decreased"}, {"measurement": "fluorescence of pGlow-PKCδ promoter compared to control samples", "setting": "PKCδ promoter", "result": "four-fold increase"}]}
